Molecules are shown by their SMILES.

From patent US20260256799A1, “INHIBITORS FOR TREATING SOLID TUMOURS” (UNIVERSITY OF SOUTHAMPTON, priority 2023, published 2026) come the findings set out here.

For this assay, the system named is MLF. As to the kind of experiment: TGF-β1-induced myofibroblast differentiation of mouse lung fibroblasts. Type of assay: cell-based. On the procedure:
Human NSCLC cell line H441, HNSCC SCC25, murine cancer cell line TC-1 (lung), MC38 (colon) and human fetal foreskin fibroblasts HFFF2 were purchased from European Collection of Cell Cultures (Public Health England) or ATCC; HNSCC 5PT [32] were provided by l. Mackenzie (Queen Mary University of London, UK). HEK-293T cells and IMR90 lung fibroblasts were provided by Jesus Gil (Imperial College, London, UK). SCC25 were grown in Ham's F12:DMEM (1:1 ratio) medium with 10% FBS (Calbiochem) and 292 μg/ml L-Glutamine. 5PT were cultured in keratinocyte growth medium. HEK-293T, H441, MC38, HFFF2, IMR90 and primary fibroblasts were grown in DMEM supplemented with 10% FBS and 292 μg/ml L-Glutamine. Primary fibroblasts were isolated as previously used at early passage (p1-10). C57BL/6 murine normal lung and colon fibroblasts (MLF and MCF respectively) were grown at 3% oxygen. TC-1 were cultured in RPMI supplemented with 10% FBS and 292 μg/ml L-Glutamine. All cell cultures were routinely tested for mycoplasma contamination. All cells were cultured using standard cell culture plates/flasks (Corning). HFFF2 or IMR90 cells were transfected with 25 μM On-Target pool siRNA (Thermo Scientific/Dharmacon) using Oligofectamine reagent (Life Technologies) as described. Stable knockdown was performed using retro/lentiviral mediated transduction of shRNA plasmids, as previously described followed by cell selection using 1 μg/ml puromycin for 5-7 days. NOX4-inducible HEK-293 cells (kindly provided by Vincent Jaquet) were treated with 1 μg/ml doxycycline. […]
5×10^3 HFFF2 were plated on permanox chamber slides (Thermo Scientific) and treated as described in the figure legends. […] Images were taken using an Olympus IX81 fluorescence microscope and Xcellence program. DNA Damage foci were quantified from at least 8 non-overlapping FoV with ~300 cells in total per condition. […] SMA and Collagen 1A1 quantification was performed using Fiji. […]

Where [1] appears, read: AZD0156 0.5 μM + TGF-β1 for a week, Q-RT-PCR.

As for `CN(C)CCCOc1ccc(-c2ccc3ncc4c(c3c2)n(C2CCOCC2)c(=O)n4C)cn1` [AZD0156], the “myofibroblast differentiation in vitro” value (AZD0156 0.5 μM + TGF-β1, 72 hours (Western) or 7 days (Collagen1, Fibronectin)) is reported as “suppressed”. Under setting [1], the “effect on iCAF genes” value was “gene-specific and generally non-significant”; the myoCAF genes expression entry is on record as “significantly down-regulated”.
